{"source": "patent US20220091128A1", "about": "“SYSTEM AND METHOD FOR LIGAND THERMAL ANALYSIS” (Portland State University, priority 2019, published 2022)", "key": {"HSA [1]": {"molecular_target": "T1, HSA (Homo sapiens, UniProt P02768)", "T1 sequence (P02768 25-609)": "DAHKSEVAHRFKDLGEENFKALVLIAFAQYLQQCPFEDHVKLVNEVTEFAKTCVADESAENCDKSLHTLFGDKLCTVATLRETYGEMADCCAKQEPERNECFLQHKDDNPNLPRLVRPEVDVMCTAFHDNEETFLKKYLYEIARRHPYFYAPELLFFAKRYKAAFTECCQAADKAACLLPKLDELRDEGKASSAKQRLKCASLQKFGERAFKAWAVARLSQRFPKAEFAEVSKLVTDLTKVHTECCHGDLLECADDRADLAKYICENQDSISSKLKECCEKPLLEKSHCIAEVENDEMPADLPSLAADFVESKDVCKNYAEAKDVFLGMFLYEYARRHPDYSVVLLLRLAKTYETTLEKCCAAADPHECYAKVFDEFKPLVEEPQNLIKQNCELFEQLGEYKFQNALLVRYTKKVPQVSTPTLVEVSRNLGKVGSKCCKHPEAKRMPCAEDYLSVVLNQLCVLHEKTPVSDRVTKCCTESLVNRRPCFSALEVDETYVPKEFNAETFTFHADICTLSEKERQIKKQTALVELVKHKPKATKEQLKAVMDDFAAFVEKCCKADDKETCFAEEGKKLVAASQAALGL", "parameters": "purchased Sigma Aldrich (St. Louis, Mo.)", "details": "cited from earlier work; for pKd: binding to HSA, read-out: Average Literature KD; for reported HSA binding activity: literature report"}, "HSA [2]": {"molecular_target": "T1, HSA", "experiment": "Drug screening: HSA binding constants from DSC thermograms", "details": "for Measured HSA binding (cell spanning the measured KD columns; same in text): result in words", "quoted_text": "Ligand solubilization: Stock solutions of aqueous insoluble ligands in organic solvents were pipetted into microcentrifuge tubes to yield a desired amount of drug for a 1 mL solution. The microcentrifuge tubes were placed into a vacuum concentrator (Savant SpeedVac Model SC100), and the organic solvents were evaporated, resulting in solid drug in the tube. To each tube, HSA is added at a predetermined concentration with standard buffer to provide a 1 mL working solution.\nIn total binding of 28 drug compounds to HSA was examined by obtaining thermograms."}, "[3]": {"molecular_target": "T2, human serum albumin (HSA) (Homo sapiens, UniProt P02768)", "T2 construct": "purchased Sigma Aldrich (St. Louis, Mo.)", "T2 sequence (P02768 25-609)": "as above", "experiment": "DSC thermograms of HSA with ligand (single-ligand titration)", "type": "binding", "protocol": "Chemicals and reagents: Plasma and highly pure plasma proteins are sourced from commercial suppliers. Standard reagents are sourced from commercial suppliers. Samples are prepared in standard phosphate-buffered saline (PBS) buffer. In some examples, human plasma and serum albumin were purchased from Sigma Aldrich (St. Louis, Mo.) and received as lyophilized powder. Plasma was product number: P9523, lot number: SLBT0202. […] In vivo, the standard state of HSA is most certainly bound to some extent by fatty acids. Plasma and HSA stock solutions were prepared by re-suspending the appropriate amount of powder in buffer. Samples were prepared by diluting stock solutions to a final concentration of 1.5-2.0 mg/mL.\nProtein concentration was approximately 2 mg/ml.\nIn a DSC melting experiment, the supplemental power supplied to the sample cell (in μW) necessary to keep the sample temperature equal to the reference temperature is continually monitored. […] Supplemental power is directly related to the molar heat capacity at constant pressure, ΔCp. Curves of ΔCp versus T provide an evaluation of the thermodynamic enthalpy. To enable direct comparisons in some cases, power (μW) versus T plots (instead of ΔCp versus T curves) were used for the following reason.\nAnalysis of DSC data was performed using the Nanoanalyze software package, version 3.7.5, provided by T.A. Instruments. […]\nFrom the thermograms, semi-quantitative evaluations of the thermodynamic parameters ΔHcal, ΔScal and ΔGcal(37° C.) were obtained at each ligand concentration.\nThese curves were constructed from titrations of DM1 with HSA. The Tm and ΔGcal(37° C.) were evaluated. The values were normalized against standard HSA and plotted versus ligand concentration to provide the dose curves in FIG. 20A (Tm) and FIG. 20B (ΔGcal(37° C.)).\nNatural HSA samples were prepared at pH 6.0 and pH 8.0 and examined by DSC. […] From DSC melting curves thermodynamic parameters for HSA/ligand mixtures were evaluated."}, "human plasma": {"tested_on": "human plasma", "experiment": "DSC thermograms of plasma with ligand", "type": "binding"}, "[4]": {"details": "Average Measured KD, binding to HSA; single value or value marked 1)"}, "[5]": {"details": "Measured KD From TM, binding to HSA; single value or value marked 1)"}, "[6]": {"details": "Measured KD from ΔG^037, binding to HSA; single value or value marked 1)"}, "[7]": {"details": "read-out: Average Measured KD; binding to HSA; single value or value marked 1)"}, "[8]": {"details": "read-out: Measured KD From TM; binding to HSA; single value or value marked 1)"}, "[9]": {"details": "read-out: Measured KD from ΔG^037; binding to HSA; single value or value marked 1)"}}, "note": "pKd: −log10 of the molar value. Where two headings read alike, the source gives them in different places."}
{"compound": "O=C([O-])CN(CCN(CC(=O)[O-])CC(COP(=O)(O)OC1CCC(c2ccccc2)(c2ccccc2)CC1)N(CC(=O)[O-])CC(=O)[O-])CC(=O)O.[Gd+3].[Na+]", "note": "(stereo not drawn) [Ablavar (AB)]", "values": [{"measurement": "pKd", "setting": "HSA [1]", "value": 4.22}]}
{"compound": "C=CC1=C(C)/C(=C/c2[nH]c(Cc3[nH]c(/C=C4\\NC(=O)C(C)=C4C=C)c(C)c3CCC(=O)O)c(CCC(=O)O)c2C)NC1=O", "note": "[Bilirubin (BIL), Bilirubin]", "values": [{"measurement": "pKd", "setting": "HSA [1]", "value": 7.13}, {"measurement": "pKd", "setting": "HSA [2]; [4]", "value": 6.48}, {"measurement": "pKd", "setting": "HSA [2]; [5]", "value": 6.39}, {"measurement": "pKd", "setting": "HSA [2]; [6]", "value": 6.60}]}
{"compound": "CC(NC(C)(C)C)C(=O)c1cccc(Cl)c1", "note": "(stereo not drawn) [Bupropion (BPR), Bupropion]", "values": [{"measurement": "pKd", "setting": "HSA [1]", "value": 3.76}, {"measurement": "pKd", "setting": "HSA [2]; Average Measured KD, binding to HSA; second value marked 2)", "value": 4.71}, {"measurement": "pKd", "setting": "HSA [2]; [4]", "value": 6.60}, {"measurement": "pKd", "setting": "HSA [2]; Measured KD From TM, binding to HSA; second value marked 2)", "value": 4.54}, {"measurement": "pKd", "setting": "HSA [2]; [5]", "value": 6.55}, {"measurement": "pKd", "setting": "HSA [2]; Measured KD from ΔG^037, binding to HSA; second value marked 2)", "value": 4.99}, {"measurement": "pKd", "setting": "HSA [2]; [6]", "value": 6.68}]}
{"compound": "CCN(CC)CCCC(C)Nc1ccnc2cc(Cl)ccc12", "note": "(stereo not drawn) [CQ, Chloroquine]", "values": [{"measurement": "Implied number of sites", "setting": "[3]", "value": 1}, {"measurement": "effect on fibrinogen melting transition peak (52° C.) of the plasma thermogram", "setting": "human plasma", "value": "significant perturbation"}]}
{"compound": "C[C@H](CS)C(=O)N1CCC[C@H]1C(=O)O", "note": "[Captopril (CAP), Captopril]", "values": [{"measurement": "pKd", "setting": "HSA [1]", "value": 3.72}, {"measurement": "pKd", "setting": "HSA [2]; [4]", "value": 5.43}, {"measurement": "pKd", "setting": "HSA [2]; [5]", "value": 5.26}, {"measurement": "pKd", "setting": "HSA [2]; [6]", "value": 5.69}]}
{"compound": "O=C([O-])CN1CCN(CC(=O)[O-])CCN(CC(=O)O)CCN(CC(=O)[O-])CC1.[Gd+3]", "note": "[Dotarem (DOTA), gadoteric acid]", "values": [{"measurement": "reported HSA binding activity", "setting": "HSA [1]", "value": "not have any measurable HSA binding activity"}, {"measurement": "Measured HSA binding (cell spanning the measured KD columns; same in text)", "setting": "HSA [2]", "value": "No Binding Detected"}, {"measurement": "Measured HSA binding (cell spanning the measured KD columns; same in text)", "setting": "HSA [2]; listed as Dotarem", "value": "no binding was observed"}]}
{"compound": "O=C1OC2(c3ccc(O)cc3Oc3cc(O)ccc32)c2ccccc21", "note": "[Fluorescein (FSC), Fluorescein]", "values": [{"measurement": "pKd", "setting": "HSA [1]", "value": 3.67}, {"measurement": "pKd", "setting": "HSA [2]; [4]", "value": 4.17}, {"measurement": "pKd", "setting": "HSA [2]; [5]", "value": 4.10}, {"measurement": "pKd", "setting": "HSA [2]; [6]", "value": 4.25}]}
{"compound": "COCCc1ccc(OCC(O)CNC(C)C)cc1", "note": "(stereo not drawn) [Metoprolol (MEP), Metoprolol]", "values": [{"measurement": "pKd", "setting": "HSA [1]", "value": 4.13}, {"measurement": "pKd", "setting": "HSA [2]; [4]", "value": 4.95}, {"measurement": "pKd", "setting": "HSA [2]; [5]", "value": 5.52}, {"measurement": "pKd", "setting": "HSA [2]; [6]", "value": 4.72}]}
{"compound": "CNC[C@H](O)[C@@H](O)[C@H](O)[C@H](O)CO.CNC[C@H](O)[C@@H](O)[C@H](O)[C@H](O)CO.O=C([O-])CN(CCN(CC(=O)[O-])CC(=O)O)CCN(CC(=O)O)C(COCc1ccccc1)C(=O)[O-].[Gd+3]", "note": "(stereo not drawn) [Multihance (MH)]", "values": [{"measurement": "pKd", "setting": "HSA [1]", "value": 2.71}, {"measurement": "pKd", "setting": "HSA [2]; [7]", "value": 2.87}, {"measurement": "pKd", "setting": "HSA [2]; [8]", "value": 2.86}, {"measurement": "pKd", "setting": "HSA [2]; [9]", "value": 2.89}]}
{"compound": "CC(O)CN1CCN(CC(=O)[O-])CCN(CC(=O)[O-])CCN(CC(=O)[O-])CC1.[Gd+3]", "note": "(stereo not drawn) [Prohance (PRO), gadoteridol]", "values": [{"measurement": "reported HSA binding activity", "setting": "HSA [1]", "value": "not display HSA binding activity"}]}
{"compound": "C[CH2][Hg][S]c1ccccc1C(=O)[O-].[Na+]", "note": "[Thimerosal (TMS), Thimerosal]", "values": [{"measurement": "pKd", "setting": "HSA [1]", "value": 3.47}]}
{"compound": "CCCCCc1cc(O)c2c(c1)OC(C)(C)[C@@H]1CCC(C)=C[C@@H]21", "note": "[Δ9-tetrahydrocannabinol (THC), Δ9-tetrahydrocannabinol]", "values": [{"measurement": "pKd", "setting": "HSA [1]", "value": "≥ 7.00"}, {"measurement": "pKd", "setting": "HSA [2]; [7]", "value": 7.46}, {"measurement": "pKd", "setting": "HSA [2]; [8]", "value": 7.60}, {"measurement": "pKd", "setting": "HSA [2]; [9]", "value": 7.32}]}
